According to paper PMC7794297:
Values joined by “and” are separate entries in the source; they are usually repeats but may differ in a detail not shown here. Equal entries are not always repeated. Where two headings read alike, the source gives them in different places.

Assays:
[1] = Equilibration of the thiol-disulfide DCL of building blocks 1-4 followed by HPLC-MS
Procedure: DMSO percentage is 2.5% v/v. […] DCLs were analyzed by HPLC-MS until equilibration without stirring at 6 °C.
Control DCL. […] DMSO percentage is 2.5% v/v. Regarding Secox catalyzed DCL, different stocks of Secox were carried out in order to study the percentages of Secox. […] The DCLs were prepared at 6 °C without stirring and analyzed in several hours until the complete stabilization.

[2] = Slow DCL system of building blocks 5-8, equilibration by HPLC-MS; settings: slow DCL 5-8; 5% mol (18.3 μM); 20% (v/v) DMSO, pH 7.8, 6 °C; control 192 h
Procedure: To broaden the scope of selenocystine we tested this catalyst in a slow disulfide-exchange system. The DCL comprised 4 building blocks (5–8)[37], three of them being aliphatic thiols with pKa values around 9 to slow down the exchange reaction (Fig. 7a). Due to solubility issues, a 20% (v/v) DMSO was added and the reaction mixture was diluted. […] The different oligomers were identified by HPLC-MS (Supplementary Figs. 21–30).
Control DCL. […] The DCLs were analyzed until stabilization.

[3] = Spermine-templated DCL of building blocks 2 and 3; settings: two building blocks DCL with spermine; 5% (mol); control 96 h
Procedure: (§1) Building blocks 2 and 3 equipped with carboxylate moieties to establish interactions with the protonated amine groups of the spermine were allowed to equilibrate at pH 7.8 and 6 °C (Fig. 8a). As expected in our control experiment, the major component in the absence of spermine was the linear tetramer (2)2(3)2. After the addition of spermine, the linear tetramer “decomposed” in order to form mainly the cyclic tetramer of (2)4, and the (3)2 dimer (Fig. 8a). As it was reported, several studies determined that the spermine was threaded through the macrocycle fixing the configuration to a highly symmetric stereoisomer of (2)4[36]. […] The precise composition of the DCL (with and without spermine), was assessed by measuring the relative peak area (RPA). Indeed, the normalized change of RPA was used to quantify the spermine influence in the outcome (Supplementary Fig. 42)[46]. The same template (spermine) was tested in our reference DCL of four building blocks (1–4) in the absence and presence of Secox (Fig. 8b). […] Additionally, two different templates were tested to confirm the absence of conflict between selenocystine and the templating effect. Spermidine and NADPH were introduced in our 4 building blocks DCL (1–4) in the absence and presence of Secox, leading to the amplification of different species and getting the same results as the non-catalyzed DCLs (Supplementary Figs. 44, 45, Supplementary Tables 7–10, and Supplementary Methods).
The DCL was stabilized at 96 h. […] The mixture was stabilized after 24 h. […] The DCL was stabilized at 96 h. […] The DCL was analyzed in 96 h after equilibration. DCLs were performed without stirring at 6 °C and analyzed by HPLC-MS.

scrambled RNase A [4] = target: T1, scrambled RNase A (Bos taurus, UniProt P61823); assay: Folding of scrambled RNase A at pH 7.8 (cCMP hydrolysis); settings: for V0: Secox / GSH 1 mM/5 mM
T1 sequence (P61823 27-150): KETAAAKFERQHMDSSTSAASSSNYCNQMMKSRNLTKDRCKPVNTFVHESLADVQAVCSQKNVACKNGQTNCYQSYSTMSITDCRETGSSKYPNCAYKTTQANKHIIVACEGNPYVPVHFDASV

glucose oxidase (GOx) [5] = target: T2, glucose oxidase (GOx) (Aspergillus niger, UniProt P13006); assay: GOx tolerance to Secox, Trp emission fluorescence; set-up: purchased Sigma Aldrich
scrambled RNase A [6] = target: T1, scrambled RNase A; assay: Folding of scrambled RNase A at pH 5.4 (cCMP hydrolysis); settings: in <2 h
[7] = Spermine-templated DCL of building blocks 1-4; settings: four building blocks DCL with spermine; 5% mol
Procedure: as §1
The mixture was stabilized in 96 h. […] The mixture was stabilized after 24 h. […] It was stabilized in 24 h. […] DCL was equilibrated in 96 h. DCLs were performed without stirring at 6 °C and analyzed by HPLC-MS.

[8] = for Kobs: 190 μM 3, Tris pH 7.8, 6 °C
glucose oxidase (GOx) [9] = target: T2, glucose oxidase (GOx)
[10] = target: bovine serum albumin (BSA) (Bos taurus, UniProt P02769); assay: BSA tolerance to DMSO, Trp emission fluorescence
[11] = 10 % v/v DMSO, Supplementary Figure 48 b
[12] = 20 % v/v DMSO, Supplementary Figure 48 b
[13] = 60 % v/v DMSO, Supplementary Figure 48 b

T2 sequence (P13006 17-605): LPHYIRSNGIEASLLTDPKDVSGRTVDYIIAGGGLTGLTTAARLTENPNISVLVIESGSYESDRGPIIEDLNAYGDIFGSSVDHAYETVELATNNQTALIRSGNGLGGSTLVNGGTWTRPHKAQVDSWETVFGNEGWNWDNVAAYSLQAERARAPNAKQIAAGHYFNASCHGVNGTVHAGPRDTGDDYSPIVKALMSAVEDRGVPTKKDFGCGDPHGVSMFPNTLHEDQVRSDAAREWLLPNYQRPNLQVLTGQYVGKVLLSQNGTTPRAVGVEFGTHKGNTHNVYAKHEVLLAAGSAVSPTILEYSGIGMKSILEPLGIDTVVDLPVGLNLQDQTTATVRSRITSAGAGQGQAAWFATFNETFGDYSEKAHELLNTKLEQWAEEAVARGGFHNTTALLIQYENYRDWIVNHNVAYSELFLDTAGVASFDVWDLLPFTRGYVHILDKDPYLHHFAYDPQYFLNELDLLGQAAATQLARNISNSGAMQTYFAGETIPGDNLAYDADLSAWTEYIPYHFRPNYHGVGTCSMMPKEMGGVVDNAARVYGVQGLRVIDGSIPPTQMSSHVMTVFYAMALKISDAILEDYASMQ
Chain of bovine serum albumin (BSA) (P02769 25-607): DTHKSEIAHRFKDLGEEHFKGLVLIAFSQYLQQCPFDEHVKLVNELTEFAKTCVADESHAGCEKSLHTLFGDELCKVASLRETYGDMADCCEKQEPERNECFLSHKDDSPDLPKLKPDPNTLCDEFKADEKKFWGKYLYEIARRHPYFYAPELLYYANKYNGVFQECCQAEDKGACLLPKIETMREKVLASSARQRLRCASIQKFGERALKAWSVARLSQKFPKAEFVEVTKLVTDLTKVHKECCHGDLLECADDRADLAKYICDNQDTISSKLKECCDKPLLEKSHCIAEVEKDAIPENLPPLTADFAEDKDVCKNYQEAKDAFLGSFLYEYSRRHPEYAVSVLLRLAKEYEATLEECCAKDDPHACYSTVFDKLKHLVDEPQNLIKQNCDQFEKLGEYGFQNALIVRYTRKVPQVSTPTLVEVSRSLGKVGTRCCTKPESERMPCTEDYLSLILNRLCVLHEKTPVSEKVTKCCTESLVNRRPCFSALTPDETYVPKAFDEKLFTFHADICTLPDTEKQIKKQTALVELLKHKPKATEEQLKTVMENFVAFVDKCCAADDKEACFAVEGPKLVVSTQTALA

## N[C@@H](C[Se][Se]C[C@H](N)C(=O)O)C(=O)O [Secox, selenocystine]
[1]; 190 μM as fifth building block, Tris 20 mM pH 7.8, 6 °C, control 4 days
  DCL equilibration time: 24 h
[1]; 1% mol (5.7 μM), pH 7.8, 6 °C, control 96 h
  DCL equilibration time: 72 h
[1]; 2.5% mol (14.25 μM), pH 7.8, 6 °C, control 96 h
  DCL equilibration time: 48 h
[1]; 5% mol (28.5 μM), pH 7.8, 6 °C, control 96 h
  DCL equilibration time: 24 h
[1]; 10% mol (57 μM), pH 7.8, 6 °C, control 96 h
  DCL equilibration time: 24 h
[2]
  DCL equilibration time: 60 h
[3]
  DCL equilibration time: 24 h
Scrambled RNase A [4]; 20 mM Secox / 100 mM GSH, pH 7.8
  effect on scrambled RNase A folding: partial inactivation of the protein
Scrambled RNase A [4]; 33 min
  V0: 73.3333 min⁻¹
Scrambled RNase A [4]; 65 min
  V0: 91.6667 min⁻¹
Scrambled RNase A [4]; 95 min
  V0: 91.6667 min⁻¹
Scrambled RNase A [4]; 123 min
  V0: 100 min⁻¹
Scrambled RNase A [4]; 188 min
  V0: 101.667 min⁻¹
Scrambled RNase A [4]; 232 min
  V0: 98.3333 min⁻¹
Scrambled RNase A [4]; 356 min
  V0: 105 min⁻¹
Scrambled RNase A [4]; 1440 min
  V0: 101.667 min⁻¹
Scrambled RNase A [4]; pH 7.8, 1 mM Secox/5 mM GSH, first 65 min
  yield of the correctly folded enzyme: 92%
Scrambled RNase A [4]; scrambled RNase A
  increase of refolding rate by replacing GSSG with Secox: five times
Glucose oxidase (GOx) [5]; 1 % Secox
  Wavelenght (nm) of GOx Trp fluorescence emission (Supplementary Figure 47 b): 329 nm
Glucose oxidase (GOx) [5]; 2.5 % Secox
  Wavelenght (nm) of GOx Trp fluorescence emission (Supplementary Figure 47 b): 329 nm
Glucose oxidase (GOx) [5]; 5% Secox
  Wavelenght (nm) of GOx Trp fluorescence emission (Supplementary Figure 47 b): 329 nm
Glucose oxidase (GOx) [5]; 7.5 % Secox
  Wavelenght (nm) of GOx Trp fluorescence emission (Supplementary Figure 47 b): 329 nm
Glucose oxidase (GOx) [5]; 10 % Secox
  Wavelenght (nm) of GOx Trp fluorescence emission (Supplementary Figure 47 b): 329 nm
Glucose oxidase (GOx) [5]; 30 % Secox
  Wavelenght (nm) of GOx Trp fluorescence emission (Supplementary Figure 47 b): 329 nm
Glucose oxidase (GOx) [5]; 50 % Secox
  Wavelenght (nm) of GOx Trp fluorescence emission (Supplementary Figure 47 b): 329 nm
Glucose oxidase (GOx) [5]; 100 % Secox
  Wavelenght (nm) of GOx Trp fluorescence emission (Supplementary Figure 47 b): 329 nm
Glucose oxidase (GOx) [5]; whole range of concentrations measured, up to 100 % mol
  effect on GOx stability (Trp emission maximum): No shift was observed
Scrambled RNase A [6]
  yield of native RNase A: 75%
[7]
  DCL equilibration time: 24 h
[8]; 1% (mol), 2.5% (v/v) DMSO
  Kobs: 0.091 ± 0.002 M⁻¹ s⁻¹
[8]; 1% mol
  time until total completion of homodimerization: 3 days
[8]; 2.5% mol
  time until total completion of homodimerization: 2 days
[8]; 5% (mol) catalyst, 2.5% (v/v) DMSO, uncatalyzed 0.014 ± 0.001
  Kobs: 0.259 ± 0.009 M⁻¹ s⁻¹
[8]; 5% Secox
  acceleration over the uncatalyzed reaction: 18 fold
[8]; 5% mol
  time until total completion of homodimerization: 0.917 days and 1 days
[8]; 10% mol
  time until total completion of homodimerization: 0.75 days

## C[S+](C)[O-] [DMSO]
Glucose oxidase (GOx) [9]
  DMSO concentration tolerated by GOx (no shift of Trp emission maximum): up to 20%
Glucose oxidase (GOx) [9]; 1 % v/v DMSO
  Fluorescence Emission (Average Value): 4921084
  Wavelenght (nm) of Trp emission maximum: 329 nm
Glucose oxidase (GOx) [9]; 2.5 % v/v DMSO
  Fluorescence Emission (Average Value): 5438068
  Wavelenght (nm) of Trp emission maximum: 329 nm
Glucose oxidase (GOx) [9]; 2.5 % v/v DMSO, Supplementary Figure 48 b
  Wavelenght (nm) of Trp emission maximum: 338 nm
Glucose oxidase (GOx) [9]; 5 % v/v DMSO
  Fluorescence Emission (Average Value): 4507601
  Wavelenght (nm) of Trp emission maximum: 329 nm
Glucose oxidase (GOx) [9]; 5 % v/v DMSO, Supplementary Figure 48 b
  Wavelenght (nm) of Trp emission maximum: 337 nm
Glucose oxidase (GOx) [9]; 7.5 % v/v DMSO
  Fluorescence Emission (Average Value): 4900904
  Wavelenght (nm) of Trp emission maximum: 329 nm
Glucose oxidase (GOx) [9]; 10 % v/v DMSO
  Fluorescence Emission (Average Value): 4964780
  Wavelenght (nm) of Trp emission maximum: 329 nm
Glucose oxidase (GOx) [9]; [11]
  Fluorescence Emission (at maximum): 7117020
  Wavelenght (nm) of Trp emission maximum: 336 nm
Glucose oxidase (GOx) [9]; 20 % v/v DMSO
  Fluorescence Emission (Average Value): 5321027
  Wavelenght (nm) of Trp emission maximum: 329 nm
Glucose oxidase (GOx) [9]; [12]
  Fluorescence Emission (at maximum): 7139475
  Wavelenght (nm) of Trp emission maximum: 335 nm
Glucose oxidase (GOx) [9]; 40 % v/v DMSO
  Fluorescence Emission (Average Value): 6356217
  Wavelenght (nm) of Trp emission maximum: 336 nm
Glucose oxidase (GOx) [9]; 50 % v/v DMSO
  Fluorescence Emission (Average Value): 10423932
  Wavelenght (nm) of Trp emission maximum: 337 nm
Glucose oxidase (GOx) [9]; 60 % v/v DMSO
  Fluorescence Emission (Average Value): 13490702
  Wavelenght (nm) of Trp emission maximum: 338 nm
Glucose oxidase (GOx) [9]; [13]
  Fluorescence Emission (at maximum): 8900408
  Wavelenght (nm) of Trp emission maximum: 327 nm
Glucose oxidase (GOx) [9]; 70 % v/v DMSO
  Fluorescence Emission (Average Value): 30698968
  Wavelenght (nm) of Trp emission maximum: 339 nm
Glucose oxidase (GOx) [9]; 80 % v/v DMSO
  Fluorescence Emission (Average Value): 28715570
  Wavelenght (nm) of Trp emission maximum: 344 nm
Glucose oxidase (GOx) [9]; 97 % v/v DMSO
  Wavelenght (nm) of Trp emission maximum: 349 nm
Glucose oxidase (GOx) [9]; 97 % v/v DMSO, Supplementary Figure 48 b
  Fluorescence Emission (at maximum): 24089455
[10]
  DMSO concentration tolerated by BSA: up to 10%
[8]; 20% (v/v)
  time until total completion of homodimerization: 4 days
[8]; 20% (v/v) DMSO, 0% Secox
  Kobs: 0.068 ± 0.001 M⁻¹ s⁻¹
